Measurements as given in publication PMC11313180 (International Journal of Molecular Sciences, 2024).
Read-outs that look alike come from different tables or passages of the source.

What was measured:
[1] = target: T1, HDAC8 (Homo sapiens, UniProt Q9BY41); test: Enzyme HDAC inhibition assay, HDAC8; settings: read-out: IC50 HDAC 8; IC50 ± SEM; three experiments in duplicates
T1 sequence (Q9BY41 1-377): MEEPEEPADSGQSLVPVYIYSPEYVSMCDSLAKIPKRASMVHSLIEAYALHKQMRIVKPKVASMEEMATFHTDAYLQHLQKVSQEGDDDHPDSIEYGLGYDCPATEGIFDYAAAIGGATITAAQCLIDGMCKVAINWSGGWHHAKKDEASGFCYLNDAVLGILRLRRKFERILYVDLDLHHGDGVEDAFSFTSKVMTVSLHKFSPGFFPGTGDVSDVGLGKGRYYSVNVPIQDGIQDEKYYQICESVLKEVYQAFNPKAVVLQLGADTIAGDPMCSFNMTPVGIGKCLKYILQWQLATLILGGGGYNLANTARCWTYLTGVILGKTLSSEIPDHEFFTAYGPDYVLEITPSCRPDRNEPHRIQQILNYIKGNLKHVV
Description: (§2) All human recombinant enzymes were purchased from Reaction Biology Corp. (Malvern, PA, USA).

[2] = target: T2, HDAC4 (Homo sapiens, UniProt P56524); test: Enzyme HDAC inhibition assay, HDAC4; type: biochemical; settings: IC50 ± SEM; three experiments in duplicates; read-out: IC50 HDAC 4
T2 construct: purchased Reaction Biology Corp. KDA-21-279
T2 sequence (P56524 whole entry): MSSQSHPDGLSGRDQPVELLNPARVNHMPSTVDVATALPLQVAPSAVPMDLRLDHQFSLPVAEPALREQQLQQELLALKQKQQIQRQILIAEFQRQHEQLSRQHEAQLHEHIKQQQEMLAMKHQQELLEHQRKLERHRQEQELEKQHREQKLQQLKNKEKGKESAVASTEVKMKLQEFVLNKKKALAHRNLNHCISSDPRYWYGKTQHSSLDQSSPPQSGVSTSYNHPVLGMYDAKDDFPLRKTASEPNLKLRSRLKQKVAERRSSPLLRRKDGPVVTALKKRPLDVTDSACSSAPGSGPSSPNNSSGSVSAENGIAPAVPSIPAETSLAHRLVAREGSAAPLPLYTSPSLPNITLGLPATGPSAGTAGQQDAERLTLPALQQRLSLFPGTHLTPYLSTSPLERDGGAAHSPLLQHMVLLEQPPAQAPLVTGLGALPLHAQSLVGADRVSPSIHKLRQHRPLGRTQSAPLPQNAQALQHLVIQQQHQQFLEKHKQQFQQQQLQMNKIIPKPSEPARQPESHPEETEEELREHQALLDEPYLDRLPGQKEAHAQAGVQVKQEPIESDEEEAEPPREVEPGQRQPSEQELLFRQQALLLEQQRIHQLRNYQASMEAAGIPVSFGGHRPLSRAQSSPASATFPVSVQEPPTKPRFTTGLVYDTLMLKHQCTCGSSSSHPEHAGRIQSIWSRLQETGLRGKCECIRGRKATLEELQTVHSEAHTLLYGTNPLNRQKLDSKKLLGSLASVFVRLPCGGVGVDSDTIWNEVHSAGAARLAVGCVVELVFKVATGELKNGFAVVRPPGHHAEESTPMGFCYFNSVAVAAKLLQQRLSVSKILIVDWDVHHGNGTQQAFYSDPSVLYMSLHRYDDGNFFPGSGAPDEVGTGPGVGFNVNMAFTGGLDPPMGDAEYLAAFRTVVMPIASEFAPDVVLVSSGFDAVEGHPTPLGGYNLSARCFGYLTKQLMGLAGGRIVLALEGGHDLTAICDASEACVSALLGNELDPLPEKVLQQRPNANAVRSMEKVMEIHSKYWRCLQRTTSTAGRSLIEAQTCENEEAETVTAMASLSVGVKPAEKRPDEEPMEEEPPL
Description: as §2

[3] = test system: MCF-7; test: MTT cell viability assay, MCF-7; type: cell-based, human
Description: (§1) MTT assays were performed as previously described. […] After incubation time, medium was replaced by MTT (solution of 5 mg/mL 3-(4,5-dimethylthiazol-2-yl)-2,5-diphenyl-tetrazoliumbromidin in phosphate buffered saline, Serva, Heidelberg, Germany).

[4] = test system: class I/IIb HDAC activity in T47D cells; test: cells; type: cell-based, human; settings: T47D cells, 48 h, substrate Boc-Lys-AC-AMC; IC50 ± SEM, one experiment in triplicates; read-out: IC50 Cellular HDAC Assay
Description: The cellular HDAC assay was performed based on an assay published by Heltweg and Jung and Ciossek et al.. Breast cancer cell line T-47D (12,000 c/w) was seeded in 96-well tissue culture plates (Corning, Kaiserslautern, Germany) in a total volume of 90 µL of culture medium. After 24 h, cells were incubated 48 h with increasing concentrations of a-lipoic acid. The reaction was started by adding 10 µL of 3 mM Boc-Lys(Ac)-AMC (Bachem, Bubensdorf, Switzerland) and again incubated for 3 h under cell culture conditions. […]

[5] = test system: T47D; test: MTT cell viability assay, T47D; type: cell-based, human
Description: as §1

[6] = test system: HDAC2; settings: obtained by fitting Lechner et al. source data to a sigmoidal concentration–effect model; ref [21]; read-out: IC50 HDAC 2, Lechner et al.; cited from earlier work
[7] = target: T3, HDAC6 (Homo sapiens, UniProt Q9UBN7); test: Enzyme HDAC inhibition assay, HDAC6; settings: read-out: IC50 HDAC 6; IC50 ± SEM; three experiments in duplicates
T3 sequence (Q9UBN7 1-1215): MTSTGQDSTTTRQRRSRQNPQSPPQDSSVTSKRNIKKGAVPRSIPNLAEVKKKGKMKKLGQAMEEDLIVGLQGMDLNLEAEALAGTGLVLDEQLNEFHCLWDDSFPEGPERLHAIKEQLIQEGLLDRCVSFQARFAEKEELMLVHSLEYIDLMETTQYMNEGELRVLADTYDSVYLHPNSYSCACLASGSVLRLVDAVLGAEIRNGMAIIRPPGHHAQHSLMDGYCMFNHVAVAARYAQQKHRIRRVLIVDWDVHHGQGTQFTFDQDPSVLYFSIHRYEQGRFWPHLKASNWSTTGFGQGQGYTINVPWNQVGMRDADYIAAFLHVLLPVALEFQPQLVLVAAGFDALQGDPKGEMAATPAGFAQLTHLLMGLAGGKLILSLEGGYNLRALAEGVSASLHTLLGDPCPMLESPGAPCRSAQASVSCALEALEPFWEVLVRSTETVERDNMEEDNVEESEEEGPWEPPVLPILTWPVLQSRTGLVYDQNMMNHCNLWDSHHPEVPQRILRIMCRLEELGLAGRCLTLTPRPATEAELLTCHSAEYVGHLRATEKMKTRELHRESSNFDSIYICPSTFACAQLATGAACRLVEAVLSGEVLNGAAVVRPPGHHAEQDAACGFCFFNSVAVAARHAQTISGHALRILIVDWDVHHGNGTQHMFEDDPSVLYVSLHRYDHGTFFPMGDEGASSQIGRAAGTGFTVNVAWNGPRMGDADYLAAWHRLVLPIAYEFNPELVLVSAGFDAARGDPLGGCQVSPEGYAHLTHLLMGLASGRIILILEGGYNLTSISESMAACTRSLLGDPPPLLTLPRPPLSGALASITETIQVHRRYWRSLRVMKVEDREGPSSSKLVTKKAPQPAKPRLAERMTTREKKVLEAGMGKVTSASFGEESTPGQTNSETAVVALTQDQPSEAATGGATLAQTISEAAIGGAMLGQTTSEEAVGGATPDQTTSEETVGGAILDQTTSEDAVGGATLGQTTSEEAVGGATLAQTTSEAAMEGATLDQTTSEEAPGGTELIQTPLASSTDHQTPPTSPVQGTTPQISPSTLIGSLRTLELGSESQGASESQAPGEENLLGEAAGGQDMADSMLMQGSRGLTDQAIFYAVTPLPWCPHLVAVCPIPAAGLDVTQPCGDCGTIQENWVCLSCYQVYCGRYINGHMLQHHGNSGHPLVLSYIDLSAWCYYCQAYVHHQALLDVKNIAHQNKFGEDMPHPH
Description: as §2

[8] = target: HDAC2 (Homo sapiens, UniProt Q92769); test: Enzyme HDAC inhibition assay, HDAC2; settings: read-out: IC50 HDAC 2; IC50 ± SEM; three experiments in duplicates
Chain of HDAC2 (Homo sapiens, UniProt Q92769) (Q92769 whole entry): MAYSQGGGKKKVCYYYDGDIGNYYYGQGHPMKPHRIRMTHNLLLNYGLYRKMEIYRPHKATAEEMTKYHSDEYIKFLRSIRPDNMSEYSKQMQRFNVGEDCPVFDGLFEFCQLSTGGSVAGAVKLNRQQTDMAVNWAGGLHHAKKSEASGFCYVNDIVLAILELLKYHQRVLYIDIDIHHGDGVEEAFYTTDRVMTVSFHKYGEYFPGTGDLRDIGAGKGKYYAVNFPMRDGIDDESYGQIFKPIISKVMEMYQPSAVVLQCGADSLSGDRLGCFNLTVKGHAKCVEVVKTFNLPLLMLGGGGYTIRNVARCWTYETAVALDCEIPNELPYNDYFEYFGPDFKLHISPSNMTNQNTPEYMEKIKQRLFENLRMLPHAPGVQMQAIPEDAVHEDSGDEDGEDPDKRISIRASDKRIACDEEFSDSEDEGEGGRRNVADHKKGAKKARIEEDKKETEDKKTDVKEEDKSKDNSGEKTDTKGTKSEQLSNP
Description: as §2

[9] = 120 h, IC50 ± SEM, read-out: IC50 MCF-7, 120 h MTT assay
[10] = 120 h, IC50 ± SEM, read-out: IC50 T-47D, 120 h MTT assay

| SMILES | IC50 [1] | IC50 [2] | inhibition of cell proliferation at 100 µM, MCF-7 ([3]; 100 µM, 120 h MTT) | reduction of proliferation at 300 µM, MCF-7 ([3]; 300 µM, 120 h MTT) | decrease of cell viability, MCF-7 ([3]; 1 mM, 72 h MTT) | IC50 ([3]; 72 h MTT, slightly above, read-out: IC50 MCF-7) | IC50 [3, 9] | increase in potency by prolongation of incubation time, MCF-7 ([3]; 120 h versus 72 h MTT) | IC50 ([3]; read-out: IC50 MCF-7, 72 h MTT assay, 72 h, IC50 ± SEM) | IC50 [4] | reduction of proliferation at 100 µM, T47D ([5]; 100 µM, 120 h MTT) | reduction of proliferation at 300 µM, T47D ([5]; 300 µM, 120 h MTT, more pronounced effect in T47D) | decrease of cell viability, T47D ([5]; 1 mM, 72 h MTT) | IC50 ([5]; 72 h MTT, slightly above, read-out: IC50 T47D) | IC50 [5, 10] | increase in potency by prolongation of incubation time, T47D ([5]; 120 h versus 72 h MTT) | IC50 ([5]; read-out: IC50 T-47D, 72 h MTT assay, 72 h, IC50 ± SEM) | IC50 [6] | IC50 [7] | IC50 [8] |
| --- | --- | --- | --- | --- | --- | --- | --- | --- | --- | --- | --- | --- | --- | --- | --- | --- | --- | --- | --- | --- |
| O=C(O)CCCC[C@@H]1CCSS1 [(R)-α-lipoic acid] | 151 ± 33.4 µM | 168 ± 19.3 µM | did not inhibit cell proliferation | significantly reduced proliferation | approximately 35% | ~1000 µM | 439 ± 16.3 µM | 2.7 fold | 1170 ± 28.9 µM | 969 ± 120 µM | 12% | significantly reduced proliferation | approximately 35% | ~1000 µM | 435 ± 28.6 µM | 2.6 fold | 1120 ± 67.8 µM | ~500 µM | 14.2 ± 2.62 µM | 208 ± 34.9 µM |
| O=C(O)CCCC[C@H]1CCSS1 [(S)-α-lipoic acid] | 559 ± 71 µM | 324 ± 39.9 µM | – | – | – | – | 429 ± 26.8 µM | – | – | 906 ± 87.7 µM | – | – | – | – | 338 ± 17.4 µM | – | – | > 500 µM | 21.3 ± 1.23 µM | 299 ± 34.6 µM |
